Entries after “also recorded” stand apart in the source; their conditions may differ. Numbered stars: 1 amine (or outer) side, 2 acyl side, 3 side chain; on linkers, the order of the positions; unused ones are H or OH. Bridge positions count the residues as written; N and C are the ends. Square brackets hold non-standard residues; d marks the D form. Ends that are not written are not given here. Peptide text beside a SMILES is read from it. X1 = CC(=O)NC(C(=O)OC(C(C)C)C(N[*:1])C(=O)[*:2])C(O)C(C)C; rhodamine red = Rhodamine red fluorescent dye; PhLac = O=C(O)[CH](O)Cc1ccccc1; NMeT = CN[CH](C(=O)O)[CH](C)O; NMeA = CN[CH](C)C(=O)O; NMeDha = C=C(NC)C(=O)O
Assays:
[1] = target: Bombyx neuropeptide G protein-coupled receptor A21 (BNGR-A21), N-terminal FLAG tag (Bombyx mori) (UniProt B3XXN4)
Chain of Bombyx neuropeptide G protein-coupled receptor A21 (BNGR-A21), N-terminal FLAG tag (Bombyx mori) (B3XXN4 entry or part of it): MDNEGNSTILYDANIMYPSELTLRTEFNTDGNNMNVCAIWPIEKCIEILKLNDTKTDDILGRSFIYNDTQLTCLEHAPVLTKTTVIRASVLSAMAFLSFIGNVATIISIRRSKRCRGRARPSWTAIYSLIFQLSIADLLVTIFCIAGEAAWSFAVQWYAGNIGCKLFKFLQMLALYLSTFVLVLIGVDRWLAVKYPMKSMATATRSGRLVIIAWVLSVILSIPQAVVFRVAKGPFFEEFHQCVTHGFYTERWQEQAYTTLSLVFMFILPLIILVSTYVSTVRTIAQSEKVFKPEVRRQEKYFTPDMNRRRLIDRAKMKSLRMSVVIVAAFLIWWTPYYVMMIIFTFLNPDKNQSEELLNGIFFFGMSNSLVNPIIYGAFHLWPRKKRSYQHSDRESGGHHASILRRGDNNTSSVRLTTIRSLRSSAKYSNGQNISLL

[2] = target: Bombyx neuropeptide G protein-coupled receptor A21 (BNGR-A21), N-terminal FLAG tag (Bombyx mori) (UniProt B3XXN4); assay: fluorescent ligand competition binding on whole cells; HEK293 cells stably expressing FLAG-A21 in poly-D-lysine-coated 96-well plates; labeled ligand (Rho-[Lys^4]BmCrz) with buffer or unlabeled ligand in PBS with 0.2% BSA, room temperature 90 min, washed with ice-cold PBS with 0.1% BSA; fluorescence intensity as percentage of total binding
[3] = target: Bombyx neuropeptide G protein-coupled receptor A21 (BNGR-A21), N-terminal FLAG tag (Bombyx mori) (UniProt B3XXN4); remark: listed apart in the source
[4] = system: BNGR-A21 (BmCrzR); assay: intracellular calcium measurement (fura-2) in HEK293 cells; assay type: cell-based, Bombyx mori; conditions: pretreatment with YM-254890 1 μM, U73122 10 μM, EGTA 5 mM, BAPTA-AM 50 μM or nifedipine 10 μM, corazonin (1 μM with YM-254890)
Protocol: (§1) The stable FLAG-A21- and BmFlag-A21-expressing HEK293 and Sf21 cells were washed twice with phosphate-buffered saline and resuspended at 5 × 10^6 cells/ml in Hanks' balanced salt solution. The cells were detached by a Nonenzymatic Cell Dissociation Solution (M&C Gene Technology, China) or 0.02% EGTA and then loaded with 3 μM Fura 2-AM (Dojindo Laboratories, Japan) for 30 min at 37 °C. Cells were washed twice in Hanks' solution and then resuspended in Hanks' solution at a concentration of 3 × 10^7 cells/ml. Calcium flux was measured using excitation wavelengths of 340 and 380 nm in a fluorescence spectrometer (Tecan Infinite 200 PRO, Switzerland).
(§2) FIGURE 4. Intracellular Ca^2+ influx. HEK293 (A) and Sf21 (B) cells, respectively, transfected with FLAG-A21 and BmFlag-A21 were measured in response to different concentrations of corazonin peptide using the fluorescent Ca^2+ indicator fura-2. C, effect of pretreatment of the Gq inhibitor on corazonin (1 μM)-mediated Ca^2+ influx in HEK293 cells. D, effects of pretreatment of calcium chelators (EGTA, 5 mM, and BAPTA-AM, 50 μM) and L-calcium channel (nefidipine, 10 μM) inhibitors on corazonin-mediated Ca^2+ influx in HEK293 cells. Effect of pretreatment of PLC inhibitor (U73122, 10 μM) on corazonin-mediated Ca^2+ influx in HEK293 (E) and Sf21 (F) cells. The figures are representative of more than three independent experiments.

[5] = target: Bombyx neuropeptide G protein-coupled receptor A21 (BNGR-A21), N-terminal FLAG tag (Bombyx mori) (UniProt B3XXN4); remark: listed apart in the source
[6] = system: BNGR-A21 (BmCrzR); assay type: cell-based, Bombyx mori
[7] = system: CrzR in A. gambiae; design: method as in PMID 16616003; conditions: cited from earlier work
[8] = target: BmCrzR (BNGR-A21); assay: CRE-driven luciferase assay of rhodamine-labeled corazonin; assay type: cell-based, Bombyx mori; conditions: Fig. 5A; CRE-driven luciferase system; rhodamine red-labeled peptide; read-out: activation of BmCrzR (CRE-driven luciferase), EC50
Protocol: After seeding in a 48-well plate overnight, HEK293 or Sf21 cells transiently or stably cotransfected with BNGR-A21 and pCRE-Luc were grown to 90–95% confluence, stimulated with the corazonin peptides in DMEM without FBS, and incubated for 4–6 h at 37 °C. Luciferase activity was detected by a firefly luciferase assay kit (KenReal, Shanghai, China). The cAMP concentration was assessed using a commercially available cAMP detection kit (R&D Systems).
All results are expressed as the mean ± S.E. Data were analyzed using nonlinear curve fitting (GraphPad Prism version 5.0) to obtain EC50 values. Statistical significance was determined using Student's t test. Probability values that were less than or equal to 0.05 were considered significant.
FIGURE 5. Direct interaction of BNGR-A21 with corazonin. A, rhodamine red-labeled [Lys^4]corazonin activity was assayed using the CRE-driven luciferase system. B, binding of Rho-[Lys^4]BmCrz to BNGR-A21 expressed in HEK293 cells was measured in the presence of different concentrations of unlabeled peptides or in the absence of unlabeled peptides (total binding). The extent of binding was determined by fluorescence intensity and is presented as a percentage of the total binding. The results represent the mean ± S.D. (n = 3).

[9] = system: BmCrzR (BNGR-A21); assay: ERK1/2 activation assay in HEK293 cells stably expressing BmCrzR; assay type: cell-based, Bombyx mori; conditions: HEK293 cells stably transfected with BmCrzR; 1 h pretreatment (H89 10 μM, Go6983 10 μM, U0126 1 μM), then corazonin 1 nM, 5 min
[10] = system: BNGR-A21 (BmCrzR); assay: intracellular calcium measurement (fura-2) in Sf21 cells; assay type: cell-based, Bombyx mori; conditions: pretreatment with U73122 10 μM
Protocol: as §1, §2

Bombyx mori corazonin ([Arg^7]corazonin) (peptide)
CRE-driven luciferase reporter (cAMP accumulation), dose response to corazonin, HEK293 cells co-transfected with FLAG-A21/CRE-Luc; EC50 [1]: 4.5 nM
CRE-driven luciferase reporter (cAMP accumulation), dose response to corazonin, Sf21 cells co-transfected with FLAG-A21/CRE-Luc; EC50 [1]: 1 nM
IC50 [2]: 0.49 nM
ERK1/2 phosphorylation (Western blot), dose response to corazonin, HEK293 cells stably expressing BmCrzR; EC50 [3]: 1.4 nM
ERK1/2 phosphorylation (Western blot), dose response to corazonin, Sf21 cells expressing BmCrzR; EC50 [3]: 4.7 nM

COC(=O)C1=C(C)NC(C)=C(C(=O)OC)C1c1ccccc1[N+](=O)[O-] [nifedipine]
effect of inhibitor on corazonin-mediated Ca^2+ mobilization [4]: sensitive; also recorded: partially impaired

Rhodamine red-labeled [Lys^4]BmCrz (peptide)
CRE-driven luciferase reporter; EC50 [5]: 86.1 nM

O=C(O)CN(CCOCCOCCN(CC(=O)O)CC(=O)O)CC(=O)O [EGTA]
inhibition of BmCrz-induced luciferase activity [6]: significantly inhibited
effect of inhibitor on corazonin-mediated Ca^2+ mobilization [4]: sensitive; also recorded: partially impaired

endogenous corazonin: endogenous corazonin of A. gambiae (ref 22) (QTFQYSRGWTN; ends and bridges not checked; UniProt A0NDK8 21-31, looked up)
selectivity of A. gambiae CrzR activation [7]: only be activated by its endogenous corazonin
EC50 ([7]; read-out: activation of A. gambiae CrzR (cAMP accumulation), EC50): 4 nM

cholera toxin [CTX]
effect of stimulation with CTX on cellular levels of cAMP [6]: remarkable increase in the cellular levels of cAMP

CC(=O)OCOC(=O)CN(CC(=O)OCOC(C)=O)c1ccccc1OCCOc1ccccc1N(CC(=O)OCOC(C)=O)CC(=O)OCOC(C)=O [BAPTA-AM]
inhibition of BmCrz-induced luciferase activity [6]: significantly inhibited
effect of inhibitor on corazonin-mediated Ca^2+ mobilization [4]: sensitive; also recorded: partially impaired

C=C1C(=O)NC(C)C(=O)N(C)C(C)C(=O)NC(C(OC(=O)C(NC(C)=O)C(O)C(C)C)C(C)C)C(=O)N(C)C(C(C)OC)C(=O)OC(C)C(NC(C)=O)C(=O)OC(Cc2ccccc2)C(=O)N1C (centres unmarked) [YM-254890] (Ac-T[PhLac][NMeDha]A[NMeA][X1][NMeT](Me); ester 1-C; configuration not given here)
inhibition of BmCrz-induced luciferase activity [6]: significantly inhibited; also recorded: sensitive
effect of inhibitor on corazonin-mediated Ca^2+ mobilization [4]: significant decrease in the intracellular Ca^2+ mobilization; also recorded: significantly blocked

Rho-[Lys^4]BmCrz: Q4K peptide conjugated with rhodamine red at the Lys residue (QTFK(rhodamine red)YSRGWTN; ends and bridges not checked; UniProt Q86N75 20-30, looked up, variant Q4K)
EC50 [8]: 86.1 nM

pertussis toxin [PTX]
effect of pretreatment on corazonin-stimulated cAMP generation [6]: no effect on cAMP generation; also recorded: PTX-insensitive

COc1ccc2c(c1)c(C1=C(c3c[nH]c4ccccc34)C(=O)NC1=O)cn2CCCN(C)C [Go6983]
block of BmCrzR-mediated activation of ERK1/2 [9]: significantly blocked; also recorded: significantly inhibited
inhibition of BmCrz-induced luciferase activity [6]: significantly inhibited

O=S(=O)(NCCNC/C=C/c1ccc(Br)cc1)c1cccc2cnccc12 [H89]
block of BmCrzR-mediated activation of ERK1/2 [9]: significantly blocked; also recorded: significantly inhibited
inhibition of BmCrz-induced luciferase activity [6]: significantly inhibited; also recorded: sensitive

N#CC(=C(/N)Sc1ccccc1N)/C(C#N)=C(/N)Sc1ccccc1N [U0126]
block of BmCrzR-mediated activation of ERK1/2 [9]: significantly blocked; also recorded: significantly inhibited

COc1ccc2c(c1)CC[C@@H]1[C@@H]2CC[C@]2(C)[C@@H](NCCCCCCN3C(=O)C=CC3=O)CC[C@@H]12 [U73122]
inhibition of BmCrz-induced luciferase activity [6]: significantly inhibited
effect of inhibitor on corazonin-mediated Ca^2+ mobilization [10]: sensitive
effect of inhibitor on corazonin-mediated Ca^2+ mobilization [4]: sensitive; also recorded: significantly blocked

— PMC3636857, “Specific Activation of the G Protein-coupled Receptor BNGR-A21 by the Neuropeptide Corazonin from the Silkworm, Bombyx mori, Dually Couples to the Gq and Gs Signaling Cascades” (The Journal of Biological Chemistry, 2013)
